Measured values as given in article PMC7367873, “Dissecting the sequence determinants for dephosphorylation by the catalytic subunits of phosphatases PP1 and PP2A” (Nature Communications, 2020).

How the values were obtained:
[1] = tested on: mKate2-GAB2 localization in Caco-2 BBe1 cells; experiment: GAB2 recruitment to the plasma membrane, live-cell confocal microscopy, Caco-2 BBe1; format: cell-based, human; details: Caco-2 BBe1, starved, 12 min; EGF 100 ng/mL; PDP-Nal/PDPm-Nal 50 µM; n = 19/13/13 cells for EGF/PDP-Nal/PDPm-Nal
Method: (§1) The cells were seeded on 8-well ibiTreat µslides (Ibidi) and transfected as described in the respective section. In order to serum-starve cells for 45 min to 1 h before imaging, cells were washed twice with warm PBS and cultivated in 200 µL DMEM without FBS and phenol red (Gibco) supplemented with 1 g/L L-glutamine and 1% penicillin/streptomycin. For imaging, cells were then mounted in an Okolab stage incubator system (37 °C, 5% CO2 using an H101-CRYO-BL temperature controller, CO2-O2 UNIT-BL gas controller, H101-HM active humidity controller and incubation chamber H101-NIKON-TI-S-ER). All images were acquired with the A1R Confocal Scanning System equipped on a Nikon Ti-E inverted microscope installed with an Apo TIRF 100x DIC N2 1.49 NA Oil objective. […] Images were acquired using the GaAsP detectors controlled with the NIS Elements 4.50 operating software. Time-lapse-experiments consisted of an image acquisition interval of 15 s for at least 12 min for each sample condition separately using an exposure time of 0.5 frames per second. […]
(§2) Supplementary Figure 8. […] For Caco-2 BBe1 the following number (n) of cells were analyzed: 19 (EGF), 13 (PDP-Nal), 13 (PDPm-Nal); for SW-480: 20 (EGF), 19 (PDP-Nal), […]

[2] = tested on: mKate2-GAB2 localization in SW-480 cells; experiment: GAB2 recruitment to the plasma membrane, live-cell confocal microscopy, SW-480; format: cell-based, human; details: SW-480, starved, 12 min; EGF 100 ng/mL; PDP-Nal/PDPm-Nal 50 µM; n = 20/19/26 cells for EGF/PDP-Nal/PDPm-Nal
Method: as §1, §2

[3] = tested on: mKate2-GAB2 localization in HeLa Kyoto cells; experiment: GAB2 recruitment to the plasma membrane, live-cell confocal microscopy, HeLa Kyoto; format: cell-based, human; details: starved, 5 min, EGF 100 ng/mL, PDP-Nal/PDPm-Nal 50 µM, n = 44/56/31 cells for EGF/PDP-Nal/PDPm-Nal
Method: The cells were seeded on 8-well ibiTreat µslides (Ibidi) and transfected as described in the respective section. In order to serum-starve cells for 45 min to 1 h before imaging, cells were washed twice with warm PBS and cultivated in 200 µL DMEM without FBS and phenol red (Gibco) supplemented with 1 g/L L-glutamine and 1% penicillin/streptomycin. For imaging, cells were then mounted in an Okolab stage incubator system (37 °C, 5% CO2 using an H101-CRYO-BL temperature controller, CO2-O2 UNIT-BL gas controller, H101-HM active humidity controller and incubation chamber H101-NIKON-TI-S-ER). All images were acquired with the A1R Confocal Scanning System equipped on a Nikon Ti-E inverted microscope installed with an Apo TIRF 100x DIC N2 1.49 NA Oil objective. […] Images were acquired using the GaAsP detectors controlled with the NIS Elements 4.50 operating software. Time-lapse-experiments consisted of an image acquisition interval of 15 s for at least 12 min for each sample condition separately using an exposure time of 0.5 frames per second. Cells were treated after frame 3 by adding 100 µL of starvation media (see above) with 300 ng/mL EGF (Gibco) or 150 µM PDP(m)-Nal resulting in final concentrations of 100 ng/mL for EGF and 50 µM for PDPs.
For image analysis, microscopy files were loaded into Fiji v2.0.0-rc-34/1.50a. […]

PP1/PP2A = details: 20 nM Calyculin A in cell culture medium and lysis buffer; ref PMID 30338897; cited from earlier work
From the text: page 8: an adjusted p-value <0.01 are highlighted in bold in the heat-map comparing PP1c/PP2Ac. […] Furthermore, this new comparison also brought to our attention an apparently very strong differential effect of Pro in +1. We have therefore synthesized the Cterm peptide AAAApTPFGAK. Like in the case of ba ...

[4] = tested on: GAB2/GFP-14-3-3β interaction; experiment: GAB2/14-3-3 binding assay (GFP-14-3-3β pull-down, Western blot); set-up: species or system human
Method: pEGFP(C1)-14-3-3β or pCMV-GAB2-3FLAG was transfected into HeLa Kyoto cells as described in the respective section for 24 h. Cells were incubated with or w/o 20 nM Calyculin A (# 9902 S, Cell Signaling Technology) in complete growth media for 12 min. Cells were washed twice on ice with cold PBS and after addition of 500 µL lysis buffer (100 mM NaCl, 10 mM Tris, 0.1% IGEPAL, 1 mM EDTA, 1 mM EGTA, 20 nM Calyculin A, 1x cOmplete Mini protease inhibitor cocktail (Sigma), 2 mM DTT, 2 mM MnCl2) cells were scraped from plates, lysed by 10 pushes through an injection needle and the insoluble fraction was pelleted by centrifugation (10 min, 10^4 rcf, 4 °C). Supernatants were then subjected to incubation with 1 µM recombinant PP1c (if not indicated otherwise) or buffer for 1 h at 30 °C. […] Next, we subjected samples to immunoprecipitation/pull-down using 25 µL of α-FLAG M2 magnetic bead slurry (Sigma-Aldrich) or an equal volume of bead-coupled α-GFP nanobodies (EMBL PEPcore Core Facility) for 2 h at 4 °C. Beads were then washed three times with lysis buffer and samples were eluted in 1x SDS sample buffer by heating to 95 °C for 10 min and further analyzed by SDS PAGE for 14-3-3/GAB2 association and phosphorylation status of GAB2-pS210.
For SDS-PAGE, samples were loaded on NuPAGE™ 4-12% Bis-Tris protein gels (Invitrogen) and gel electrophoresis was performed at 180 V constant in 1x MOPS buffer. Samples were transferred onto CN blotting membranes (0.45 µm, neoLab) by wet blotting. Membranes were stained using Ponceau, followed by blocking with Tris-buffered saline with 0.1% Tween (TBS-T) containing 5% (w/v) non-fat milk for 45 min at room temperature. After three washes (5 min), membranes were then incubated with the following antibodies in TBS-T with 5% BSA overnight at 4 °C: α-GFP (1:2000, Abcam, ab6556), α-GAB2 (1:1000, CST, #3239), α-GAB2-pS210 (1:250, Symansis, customized purification), α-FLAG (1:1000, M2, Sigma-Aldrich, F3165), α-pan14-3-3 (1:500, SCBT, sc-629), α-PP1 (1:1000, SCBT, sc-7482), α-PP2A (1:1000, SCBT, sc-130237) or α-6His (1:2000, Abcam, ab9108). Afterwards blots were washed three times in TBS-T and incubated with goat anti-mouse IgG-peroxidase conjugate (1:2500, Sigma, A0168), donkey anti-rabbit IgG-horseradish peroxidase (HRP) conjugate (1:2500, GE Healthcare, GENA934), or rabbit anti-sheep IgG (H + L) HRP conjugate (1:2500, Thermo Fisher Scientific, 61-8620) for 2 h at room temperature. […] All blots were quantified using raw images and ImageLab software (v6.0.1, BioRad): Files were imported and analyzed without further modifications. […] The quantification was exported from the analysis table and measurements of background adjusted band volumes where used for further normalization steps and graphical depiction. […]

GAB2-pS210 = experiment: In vitro dephosphorylation of GAB2-pS210 (Western blot); format: biochemical, human; details: GAB2-pS210 relative to GAB2, Calyculin A 20 nM 12 min in HeLa Kyoto cells, recombinant PP1c 1 µM, 1 h at 30 °C in lysate
Method: pEGFP(C1)-14-3-3β or pCMV-GAB2-3FLAG was transfected into HeLa Kyoto cells as described in the respective section for 24 h. Cells were incubated with or w/o 20 nM Calyculin A (# 9902 S, Cell Signaling Technology) in complete growth media for 12 min. Cells were washed twice on ice with cold PBS and after addition of 500 µL lysis buffer (100 mM NaCl, 10 mM Tris, 0.1% IGEPAL, 1 mM EDTA, 1 mM EGTA, 20 nM Calyculin A, 1x cOmplete Mini protease inhibitor cocktail (Sigma), 2 mM DTT, 2 mM MnCl2) cells were scraped from plates, lysed by 10 pushes through an injection needle and the insoluble fraction was pelleted by centrifugation (10 min, 10^4 rcf, 4 °C). […] Beads were then washed three times with lysis buffer and samples were eluted in 1x SDS sample buffer by heating to 95 °C for 10 min and further analyzed by SDS PAGE for 14-3-3/GAB2 association and phosphorylation status of GAB2-pS210.
For SDS-PAGE, samples were loaded on NuPAGE™ 4-12% Bis-Tris protein gels (Invitrogen) and gel electrophoresis was performed at 180 V constant in 1x MOPS buffer. […] All blots were quantified using raw images and ImageLab software (v6.0.1, BioRad): Files were imported and analyzed without further modifications. […] The quantification was exported from the analysis table and measurements of background adjusted band volumes where used for further normalization steps and graphical depiction. […]

Row | Molecule | GAB2 recruitment to the plasma membrane [1] | GAB2 recruitment to the plasma membrane [2] | GAB2 recruitment to the plasma membrane [3] | stabilization of phosphorylation of PP1/PP2A substrate sites (such as Ser259 of CRAF/Raf-1) (PP1/PP2A) | interaction of GAB2 with overexpressed GFP-14-3-3β ([4]; Calyculin A 20 nM in cells, recombinant PP1c in lysate 1 h at 30 °C, PP1c-concentration-dependent, three independent experiments) | interaction of GAB2 with GFP-14-3-3β, PP1c pre-inhibited ([4]; recombinant PP1c mixed with equimolar Calyculin A for 5–10 min before addition to lysate) | p-level of GAB2 pS210 (GAB2-pS210)
1 | EGF: epidermal growth factor (Gibco) | GAB2 recruitment to the plasma membrane | GAB2 recruitment to the plasma membrane | GAB2 recruitment to the plasma membrane | – | – | – | –
2 | COC[C@@H]([C@H](O)[C@H](O)C(=O)NCC[C@H](C)c1nc(/C=C/C[C@@H]2O[C@]3(C[C@@H](O)[C@@H]2C)O[C@H]([C@H](C[C@H](O)[C@H](C)[C@H](O)[C@H](C)/C=C(C)/C(C)=C/C=C/C(C)=C\C#N)OC)[C@H](OP(=O)(O)O)C3(C)C)co1)N(C)C [Calyculin A, reference compound] | – | – | – | stabilize | strongly increased | abolishes the effect | increased
